Measured values reported in paper PMC11904701, “Isolation and Characterization of Secondary Metabolites from Endemic and Edible Polygonum sivasicum with In Vitro Antioxidant and Cytotoxic Activities” (ACS Omega, 2025).
Values after ≈ are worked out from the molar mass of the structure shown.

Experiments:
[1] = test system: HepG2 cells; parameters: method as in doi:10.14233/ajchem.2013.15043; conditions: cited from earlier work
[2] = test system: U87 cell line; parameters: method as in PMID 28856938; conditions: data not included in the cited paper; cited from earlier work
[3] = test system: Hep-3B cell line; parameters: method as in PMID 28856938; conditions: data not included in the cited paper; cited from earlier work
[4] = test system: V79–4 cells; parameters: method as in PMID 18550394; conditions: cited from earlier work
[5] = test system: A549 (human lung carcinoma epithelial cells); assay: MTT cell viability assay, A549; conditions: for IC50: Homo sapiens, A549, 24 h, read-out: IC50, 24 h, A549; for selectivity index A549: versus CCD-1079Sk, 24 h
[6] = test system: U118 cell line; parameters: method as in PMID 28856938; conditions: data not included in the cited paper; cited from earlier work
[7] = test system: CCD-1079Sk (human normal skin fibroblast epithelial cells); assay: MTT cell viability assay, CCD-1079Sk; assay type: cell-based; conditions: 24 h, mean ± SD (n = 3)
Method: (§1) The A549 (human lung carcinoma epithelial cells, ATCC, CCL-185), MCF-7 (human breast cancer cells, ATCC, HTB-22), and CCD-1079Sk (human normal skin fibroblast epithelial cells, ATCC, CRL-2097) cell lines were initially seeded into culture flasks and grown in DMEM supplemented with 10% FBS (Sigma-Aldrich, St Louis, MO), 1% penicillin/streptomycin (Thermo Fisher Scientific, Carlsbad, CA). The cell lines were maintained in a humidified atmosphere of 5% CO2 at a temperature of 37 °C. The culture medium was changed every two days until the cells reached 80% confluence.
(§2) 3-(4,5-dimethyl-2-thiazolyl)-2,5-diphenyl-2H-tetrazolium bromide (MTT) was used to assess the cytotoxicity of hyperoside, annphenone, daucosterol, and P. sivasicum methanol extract. Cells were grown in 96-well plates at a density of 5 × 10^3 cells per well. In total, 70 to 80% of confluent cells (after 24 h) were treated with different concentrations of compounds (prepared in a medium containing 1% DMSO) in the growth medium for 24 h. At the end of the incubation periods, MTT solution was added to the wells to give a final concentration of 0.5 mg/mL. The cells were then incubated at 37 °C for a further 3.5 h. To solubilize the formazan crystals, 100 μL of DMSO was added to each well. The optical density was read at 570 nm by using an ELISA microplate reader and directly correlated with the number of viable cells. For each concentration, the data for which the measurement was repeated at least three times were compared. The relative % cell viability and the IC50 value were determined by plotting the graph as a function of concentration. Untreated cells were considered as control, and medium without cells was considered as background control. To determine the cytotoxic effect of compounds on cell viability, cells that were not treated with compounds were considered 100% viable, and cell viability was calculated according to the following formula: % Cell Viability = Sample/Control × 100.
(§3) All data on bioactivity tests were averages of triplicate analyses. Activity assays were carried out at six concentrations, and the results are given as the IC50 values. The data were analyzed using One-way ANOVA followed by Tukey’s post hoc test. p < 0.05, p < 0.001 and p < 0.0001 were considered statistically significant. Data were recorded as mean ± SEM (standard error of the mean). Significant differences between means were determined by the one-way ANOVA, and p values < 0.05 were regarded as significant. IBM SPSS statistical software (Version: 28.0.0.0 (190)) and GraphPad Prism 10.2 were used for statistical analysis.

[8] = test system: MCF-7 cell line; parameters: method as in PMID 28856938; conditions: data not included in the cited paper; cited from earlier work
[9] = parameters: method as in PMID 28856938; conditions: annphenone isolated from a Euphorbia species; cited from earlier work
[10] = test system: MCF-7 (human breast cancer cells); assay: MTT cell viability assay, MCF-7; assay type: cell-based; conditions: 24 h; for IC50: Homo sapiens, MCF7, MTT, mean ± SD (n = 3); for selectivity index MCF-7: versus CCD-1079Sk
Method: as §1, §2, §3

[11] = test system: A549 cell line; parameters: method as in PMID 28856938; conditions: data not included in the cited paper; cited from earlier work
[12] = ABTS cation radical assay; assay type: biochemical; conditions: mean ± SEM of three parallel measurements
Method: as §3, with “Significant differences between means were determined by the one-way ANOVA, and p values < 0.05 were regarded as significant.” left out

[13] = CUPRAC (Cupric Reducing Antioxidant Capacity) method; assay type: biochemical; conditions: A0.5 values, mean ± SEM of three parallel measurements
Method: as §3, with “Significant differences between means were determined by the one-way ANOVA, and p values < 0.05 were regarded as significant.” left out

[14] = DPPH free radical scavenging assay; assay type: biochemical; conditions: mean ± SEM of three parallel measurements
Method: as §3, with “Significant differences between means were determined by the one-way ANOVA, and p values < 0.05 were regarded as significant.” left out

[15] = β-carotene linoleic acid bleaching assay; assay type: biochemical; conditions: mean ± SEM of three parallel measurements
Method: as §3, with “Significant differences between means were determined by the one-way ANOVA, and p values < 0.05 were regarded as significant.” left out

[16] = test system: MCF-7; parameters: method as in PMID 30160115; conditions: after 24 h; cited from earlier work
[17] = test system: MDA-MB-231; parameters: method as in PMID 30160115; conditions: after 24 h; cited from earlier work
[18] = test system: breast cancer tumor; parameters: method as in PMID 30160115; conditions: mice, dose-dependent; cited from earlier work

Row | IC50 [5] [µg/mL] | IC50 [10] [µg/mL] | ABTS IC50 [12] [µg/mL] | CUPRAC IC50 (A0.5: concentration of 0.500 Absorbance value) [13] [µg/mL] | Compound | selectivity index A549 [5] | IC50 [7] [µg/mL] | selectivity index MCF-7 [10] | other results
1 | – | – | – | – | O=c1[nH]cc(F)c(=O)[nH]1 [5-fluorouracil, reference compound] | – | – | – | antiproliferative IC50 on HepG2 cells [1]: 0.33 µg/mL
2 | 250 ± 10 (≈ 726 µM) | 360 ± 20 (≈ 1050 µM) | – | – | COc1cc(O[C@@H]2O[C@H](CO)[C@@H](O)[C@H](O)[C@H]2O)cc(O)c1C(C)=O [Annphenone, 2,4-dihydroxy-6-methoxy-acetophenone 4-O-β-D-glucopyranoside] | 1.20 | 300 ± 50 (≈ 871 µM) | 0.83 | cytotoxicity against U87 [2]: no cytotoxicity; antiproliferative IC50 on HepG2 cells [1]: 2.0 µg/mL; cytotoxicity against Hep-3B [3]: no cytotoxicity; cytoprotective effect against H2O2-induced apoptosis [4]: confirmed; cytotoxicity against U118 [6]: no cytotoxicity; cytotoxicity against MCF-7 [8]: no cytotoxicity; DPPH scavenging IC50 [9]: 23.23 ± 1.8 µg/mL; cytotoxicity against A549 [11]: no cytotoxicity
3 | – | – | 21.67 ± 0.87 | 26.85 ± 1.50 | Cc1cc(C(C)(C)C)c(O)c(C(C)(C)C)c1 [BHT, Butylated hydroxy toluene] | – | – | – | –
4 | 180 ± 20 (≈ 312 µM) | 580 ± 20 (≈ 1010 µM) | – | – | CC[C@H](CC[C@@H](C)[C@H]1CC[C@H]2[C@@H]3CC=C4C[C@@H](O[C@@H]5O[C@H](CO)[C@@H](O)[C@H](O)[C@H]5O)CC[C@]4(C)[C@H]3CC[C@]12C)C(C)C [Daucosterol, β-sitosterol-3-O-β-glucopyranoside] | 1.44 | 260 ± 30 (≈ 451 µM) | 0.44 | IC50 [16]: 30.8 mM; IC50 [17]: 49.8 mM; tumor volume [18]: decrease; tumor weight [18]: decrease
5 | 10 ± 10 (≈ 18.4 µM) | 40 ± 10 (≈ 73.6 µM) | – | – | COc1cccc2c1C(=O)c1c(O)c3c(c(O)c1C2=O)C[C@@](O)(C(=O)CO)C[C@@H]3O[C@H]1C[C@H](N)[C@H](O)[C@H](C)O1 [Doxorubicin, reference compound] | 28.0 | 280 ± 10 (≈ 515 µM) | 7.0 | –
6 | 600 ± 70 (≈ 1290 µM) | 370 ± 20 (≈ 797 µM) | – | – | O=c1c(O[C@@H]2O[C@H](CO)[C@H](O)[C@H](O)[C@H]2O)c(-c2ccc(O)c(O)c2)oc2cc(O)cc(O)c12 [Hyperoside, Quercetin-3-O-β-galactopyranoside] | 0.41 | 250 ± 40 (≈ 538 µM) | 0.67 | –
7 | – | – | 27.70 ± 0.28 | 134.53 ± 0.19 | Cc1c(C)c2c(c(C)c1O)CC[C@@](C)(CCC[C@H](C)CCC[C@H](C)CCCC(C)C)O2 [α-Toc, Tocopherol] | – | – | – | DPPH IC50 [14]: 36.35 ± 0.24 µg/mL

Row | Compound | IC50 [5] [µg/mL] | IC50 [10] [µg/mL] | ABTS IC50 [12] [µg/mL] | CUPRAC IC50 (A0.5: concentration of 0.500 Absorbance value) [13] [µg/mL] | selectivity index A549 [5] | IC50 [7] [µg/mL] | selectivity index MCF-7 [10] | other results
8 | COc1ccc(O)c(C(C)(C)C)c1 [BHA, Butylated hydroxy anisol] | – | – | 7.23 ± 0.01 | 24.49 ± 0.19 | – | – | – | DPPH IC50 [14]: 28.59 ± 0.06 µg/mL; β-carotene IC50 [15]: 1.34 ± 0.04 µg/mL
